Measurements published in US12616689B2, “Regimens of tafenoquine for prevention of malaria in malaria-naive subjects” (60 Degrees Pharmaceuticals, Inc., priority 2014, dated 2026).

How the values were obtained:
[1] = in vivo; cited from earlier work
[2] = Population PK analysis (NONMEM one-compartment model) of plasma tafenoquine concentrations pooled from ten Phase I/II/III clinical studies, with bootstrap evaluation; format: in vivo, human; design: key to ωCL^2, variance of inter-individual random effect on CL, final NONMEM estimate / ωV^2, variance of inter-individual random effect on V, final NONMEM estimate / ωKa^2, variance of inter-individual random effect on Ka, final NONMEM estimate / ωCL^2, Bootstrap Estimate / ωV^2, Bootstrap Estimate / ωKa^2, Bootstrap Estimate: variance of ηi, where Pi = P·exp(ηi)
Procedure: Pharmacokinetic (PK) data from several studies (Phase I/II/III) was modeled to establish a consolidated model of tafenoquine and to determine relevant covariates. More specifically, analysis was performed using data obtained from ten Phase I/II/III clinical studies of tafenoquine (U.S. Army Study Numbers: 1, 2, 3, 4, 5, 14, 15, 33, 44 and 58). Table 2 summarizes the key features of each of the studies included in the pooled dataset such as the study type and design, dose and dosing regimen, population, and sample collection schemes. A total of 866 subjects were included in the population analysis. Ninety-three percent of the subjects were male.
The tafenoquine concentrations of plasma samples across the ten studies were analyzed using a validated high-performance liquid chromatography-mass spectrometry method (HPLC-MS) or HPLC with fluorescence detection as previously described (see, Kocisko D A, Walsh D S, Eamsila C, Edstein M D. Measurement of tafenoquine (WR 238605) in human plasma, and venous and capillary blood by high-pressure liquid chromatography. Ther Drug Monit. 2000; 22:184-189; Charles B G, Miller A K, Nasveld P E, Reid M G, Harris I E, Edstein M D. Population pharmacokinetics of tafenoquine during malaria prophylaxis in healthy subjects. Antimicrob Agents Chemother. 2007; 51:2709-2715.
Population PK analyses were carried out using NONMEM version 7.1.2, PDx-Pop version 4.2 (Icon Development Solutions, Hanover, MD) and Intel Visual Fortran Compiler version 12 on a Microsoft Windows XP platform. Plasma tafenoquine concentrations, demographic information and clinical laboratory results from ten studies were used to build a pooled NONMEM input data file for the current population PK analysis. The data were prepared for analysis using SAS software version 9.1.3 (SAS Institute Inc., Cary, NC). Actual dosing and actual blood sampling times, when available, were used for the analysis. Plasma tafenoquine concentrations that were below or equal to the limit of quantification were excluded from the analysis.
Based on the PK profile of tafenoquine from previous modeling efforts (Shanks G D, Oloo A J, Aleman G M, et al. A new primaquine analogue, tafenoquine (WR 238605), for prophylaxis against Plasmodium falciparum malaria. Clin Infect Dis. 2001; 33:1968-1974; Obaldia N 3rd, Rossan R N, Cooper R D, et al. WR 238605, chloroquine, and their combinations as blood schizonticides against a chloroquine-resistant strain of Plasmodium vivax in Aotus monkeys. Am J Trop Med Hyg. 1997; 56:508-10), a one-compartment PK model with first-order absorption and elimination processes was selected to describe best the pharmacokinetics of tafenoquine. As part of the modeling process, a two-compartment PK model with first-order absorption and elimination process was also explored and discarded. The one-compartment PK model was specified in the NONMEM control file and was parameterized in terms of apparent clearance (CL/F), apparent volume of distribution (V/F) and absorption rate constant (Ka) using the PREDPP ADVAN2 with TRANS2 subroutine in NONMEM. First-order conditional estimation (FOCE) with interaction between variance of inter-individual variability and the variance of residual error was used as the estimation method. Inter-individual variability was best described by an exponential error model, as shown below: Pi=Pexp(ηi) • where: • Pi is the estimated parameter for the i^th individual. • P is the population value for the parameter. • ηi are inter-individual random effects for the i^th individual for parameter P and were assumed to be independent and symmetrically distributed with a zero mean and a variance ω^2.
Different structural models (additive, proportional, exponential and combined additive and proportional) were investigated for residual unexplained variability (RUV). RUV was best described by a proportional error model, as shown below: […]

malaria = settings: cited from earlier work
[3] = system: Plasmodium falciparum malaria; settings: regimens of 50, 100, 200 and 400 mg; cited from earlier work
[4] = system: blood stages of P. falciparum; settings: cited from earlier work
P. berghei = settings: cited from earlier work
[5] = system: chloroquine sensitive and resistant P. vivax; settings: Aotus monkeys; cited from earlier work
[6] = cited from earlier work
[7] = final PK model, coefficient of variation

COc1cc(NC(C)CCCN)c2ncccc2c1 (stereo not drawn) [primaquine]
Half-life [1]: hours

COc1cc(C)c2c(Oc3cccc(C(F)(F)F)c3)c(OC)cc(NC(C)CCCN)c2n1 (stereo not drawn) [tafenoquine, -[2,6-Dimethoxy-4-methyl-5-[3-(trifluoromethyl)phenoxy]quinolin-8-yl]pentane-1,4-diamine]
COVCL,V, Bootstrap Estimate ([2]; 1000 bootstrap samples): 0.0250
θCL, Bootstrap Estimate ([2]; 1000 bootstrap samples): 4.15
θCL-AGE, Bootstrap Estimate ([2]; 1000 bootstrap samples): −0.200
θCL-WT, Bootstrap Estimate ([2]; 1000 bootstrap samples): 0.554
θKA, Bootstrap Estimate ([2]; 1000 bootstrap samples): 0.351
θV, Bootstrap Estimate ([2]; 1000 bootstrap samples): 2482
θV-FOOD, Bootstrap Estimate ([2]; 1000 bootstrap samples): 0.810
θV-WT, Bootstrap Estimate ([2]; 1000 bootstrap samples): 0.774
σ^2, Bootstrap Estimate ([2]; 1000 bootstrap samples): 0.0486
ωCL^2, Bootstrap Estimate ([2]; 1000 bootstrap samples): 0.0536
ωKa^2, Bootstrap Estimate ([2]; 1000 bootstrap samples): 0.283
ωV^2, Bootstrap Estimate ([2]; 1000 bootstrap samples): 0.0521
Inter-individual variability associated with CL/F before inclusion of covariates WT and age ([2]; base model, without covariates): 26.5%
Inter-individual variability of V/F before inclusion of covariates WT and meal condition ([2]; base model, without covariates): 29.6%
Vd/F ([2]; both sexes, human, plasma, oral, final PK model, WT 75 kg, fasted, read-out: θV, population apparent volume of distribution (V/F), final NONMEM estimate): 2470 L
COVCL,V, covariance, final NONMEM estimate ([2]; final PK model): 0.0289
θV-WT, exponent of weight effect on V/F, final NONMEM estimate ([2]; final PK model): 0.781
σ^2, variance of the proportional residual random effect, final NONMEM estimate ([2]; final PK model): 0.0488
ωCL^2, variance of inter-individual random effect on CL, final NONMEM estimate ([2]; final PK model): 0.0555
ωKa^2, variance of inter-individual random effect on Ka, final NONMEM estimate ([2]; final PK model): 0.293
ωV^2, variance of inter-individual random effect on V, final NONMEM estimate ([2]; final PK model): 0.0583
θV-FOOD, food effect on V/F, final NONMEM estimate ([2]; final PK model, FOOD = 0 fasted, 1 fed): 0.822
Inter-individual variability of CL/F [2, 7]: 23.6%
Inter-individual variability of Ka [2, 7]: 54.1%
Inter-individual variability of V/F [2, 7]: 24.1%
Ka, first-order absorption rate constant, final NONMEM estimate ([2]; oral, final PK model): 0.359 h⁻¹
θCL, population apparent clearance (CL/F), final NONMEM estimate ([2]; oral, final PK model, WT 75 kg, age 25 y): 4.17 L/h
Protective efficacy (malaria; 200 mg daily for three days, then 200 mg weekly, 95% CI 93%-100%): 100%
Malaria breakthroughs (malaria; reference regimen, non-immune, primarily Caucasian Australian soldiers): no malaria breakthroughs were observed
Reduction in microscopically confirmed parasitemia [3]: statistically significant reductions
Half-life [1]: weeks
Activity against blood stages of P. falciparum in vitro [4]: active
Activity against P. berghei in mice in vivo (P. berghei): active
Cure of chloroquine sensitive and resistant P. vivax infections [5]: cured
Incidence of gastrointestinal adverse events relative to 400 mg once daily or BID for three days (total dose 1200 mg) ([6]; 200 mg once daily for three days (total dose 600 mg)): approximately half
Threshold dose considered safe in G6PD-deficient individuals ([6]; G6PD-deficient individuals): 300 mg
Safety and tolerability of a loading dose of 400 mg once daily for three days ([6]; G6PD-normal individuals): safe in G6PD-normal individuals in several clinical studies but exhibits gastrointestinal intolerability
Tolerability of a 400 mg dose ([6]; human, in vivo): less well tolerated
